This passage reports Cell survival rate and inhibition results from US20100249402A1, “NOVEL BENZAMIDINE DERIVATIVES, PROCESS FOR THE PREPARATION THEREOF AND PHARMACEUTICAL COMPOSITION FOR PREVENTING OR TREATING OSTEPOROSIS COMPRISING THE SAME” (DONG WHA PHARMACEUTICAL CO. LTD., priority 2007, published 2010).

Where two headings read alike, the source gives them in different places.

One data set deals with HOS. The data set is described as follows: Cytotoxicity test (MTT), HOS. As to conditions: 10^−6 M, cultured for 72 hrs, in comparison with the control group. Type of data set: cell-based. How it is done:
(§1) The cytotoxic effect of the benzamidine derivative of the present invention was evaluated by carrying out the experiment described below.
(§2) The test substance was diluted in an appropriate solvent at a concentration of 10^−2 M. This substance was diluted in an appropriate culture medium for the cells used in the cytotoxicity test to a concentration of 10^−6M, and loaded into a 96-well plate in 100 μl per well. The cell lines to be used in the cytotoxicity test were plated on a 96-well plate in a dose of 1.0×10^4 cell/100 μl per well, and cultured for 72 hrs. 25 μl of MTT[3-(4,5-dimethyl-2-thiazolyl)-2,5-diphenyl-2H-tetrazolium bromide] dissolved in PBS (2 mg/mL) were added before 4 hrs of the end of culture. After completion of the reaction, the plates were centrifuged, the medium was discarded and 100 μl of DMSO was added to dissolve formazan. Finally, the absorbance of the developed plates was measured at 540 nm. The survival rates of the cells were expressed as % concentration values in comparison with the control group.

Data set [1] relates to osteoclast differentiation. Kind of data set: Inhibitory effects on osteoclast differentiation (bone marrow cell/osteoblast co-culture, TRAP staining). Format: cell-based, mice. As to conditions: Mus musculus, Osteoclast, 168 h, read-out: Inhibition of osteoclast differentiation (%). How it is done:
The effect of the benzamidine derivative of the present invention on osteoclast formation and differentiation process was evaluated via co-culture with an osteoblast.
Tibia was aseptically ectomized from 6 to 8-week-old male ddY mice to harvest bone marrow cells by using a syringe (21G, Korea Green Cross). The bone marrow cells were suspended in 5 mL of an α-MEM medium (Gibco BRL Co., supplemented with sodium bicarbonate (2.0 g/L), streptomycin (100 mg/L) and penicillin ([…]), filtered and then sterilized). The harvested cells were centrifuged at 600×g for 5 minutes to collect the whole quantity. To remove the red blood cells in the bone marrow cells, 3 mL of Tris HCl (0.83% NH4Cl, pH 7.5) was added and well mixed. After centrifugation, the numbers of the eukaryotic cells in the harvested bone marrow cells were counted, and then immediately used for a co-culture system.
The progenitor bone and the parietal bone were aseptically ectomized from 1 to 2-day-old neonatal ICR mice, washed with a phosphate butter solution (PBS), and treated with a mixed enzyme solution (0.2% collagenase and 0.1% dispase) six to seven times (10, 10, 10, 20, 20 and 20 min), and then 3 to 6 groups of the cells, in which a large volume of cells having osteoblastic characteristics were contained, were intensively collected, and washed with medium (serum-free α-MEM). The washed cells were cultured in the α-MEM medium containing 10% FBS for 2 to 3 days. After sub-culturing, the collected cells were used for this experiment, and diluted to a concentration of 1×10^6 cells/mL for storage at −70° C.
The benzamidine derivative of the present invention was dissolved in a sterile distilled water or ethanol to be diluted to a desired concentration. The final volume of the sample added to the cell culture medium was set at a ratio of 1:1000.
The bone marrow cells prepared in the above 1-1 and the osteoblast were co-cultured. Both the bone marrow cells (25,000 cells/cm^2) and the osteoblast (10,000 cells/cm^2) were plated in a 96-well plate using α-MEM medium containing FBS, and then cultured with the samples to be tested for 7 days. Differentiation factors, such as dexamethasone (10^−7 M) and vitamin D (10^−8 M), were also co-added to the medium from the first day of cultivation. The medium was changed with a fresh media containing a mixture of the samples and the differentiation factors every 2 to 3 days.
TRAP was used as a marker to measure the matured osteoclast in consideration of its characteristics showing a positive reaction to a TRAP staining solution.
The TRAP staining solution was prepared in such the manner that 5 mg of naphthol AS-MS phosphate (sigma N-4875) as a substrate and 25 mg of a coloring agent (Fast Red Violet LB salt) were dissolved in N,N-dimethylformamide (about 0.5 mL). 50 ml of a 0.1 N […] buffer solution containing 50 mM tartaric acid (pH 5.0) was added thereto, and the mixture was stored in a refrigerator prior to use as a staining solution.
After culturing the cells for 7 days, the medium was removed from the wells, the cells were once washed with PBS, and then fixed with PBS containing 10% formalin for 2 to 5 min. The cells were fixed again in a mixed solution of ethanol and acetone (1/1) for about 1 min, and dried off. The cells were further treated by the TRAP staining solution for 15 minutes, and washed with water and dried off. The osteoclasts with 3 or more nuclei showing a TRAP-positive reaction were counted under a microscopic examination. Each of tests was confirmed at least three times. The inhibitory effect on osteoclast differentiation of each experimental group, relative to negative controls, was expressed as a percentage (%).

For another data set, the system named is MC3T3-E1. The data set is described as follows: Cytotoxicity test (MTT), MC3T3-E1. Type of data set: cell-based. The note with it: 10^−6 M, cultured for 72 hrs, in comparison with the control group. How it is done: as §1, §2
A further data set relates to calvaria. Kind of data set: Cytotoxicity test (MTT), calvaria. Type of data set: cell-based. As to conditions: 10^−6 M, cultured for 72 hrs, in comparison with the control group. How it is done:
as §1, §2

The mark [2] stands for this setting: 1 μm, 7 days co-culture, TRAP-positive osteoclasts with 3 or more nuclei, relative to negative controls.

Broadly, the inhibition is the percentage by which the read-out fell short of the control. Take `Cc1nc(-c2ccc(OCCCCCOc3ccc(C(=N)NO)cc3)cc2)c(N2CCOCC2)s1` [Example 1, N-hydroxy-4-{5-[4-(2-methyl-5-morpholin-4-yl-thiazol-4-yl)-phenoxy]-pentyloxy}-benzamidine]: the Cell survival rate amounted to 105.6% with HOS, 85.9% with MC3T3-E1 and 91.5% with calvaria. Also, in data set [1] (setting [2]), the inhibition at 1 µM was 94%.

In the case of `Cc1nc(-c2ccc(OCCCCCOc3ccc(C(=N)NO)cc3)cc2)c(N2CCN(C)CC2)s1` [Example 2, N-hydroxy-4-(5-{4-[2-methyl-5-(4-methyl-piperazin-1-yl)-thiazol-4-yl]-phenoxy}-pentyloxy)-benzamidine], the values for the Cell survival rate in the data set with HOS, in the data set with MC3T3-E1 and in the data set with calvaria were 107.0%, 91.8% and 87.9%, respectively. For the same molecule, the inhibition at 1 µM in data set [1] (setting [2]) worked out at 78.6%.

Consider `N=C(NO)c1ccc(OCCCCCOc2ccc(-c3nc(N)sc3N3CCOCC3)cc2)cc1` [Example 3, N-hydroxy-4-{5-[4-(2-amino-5-morpholin-4-yl-thiazol-4-yl)-phenoxy]-pentyloxy}-benzamidine], for which the values for the Cell survival rate with HOS, in the data set with MC3T3-E1 and in the data set with calvaria were 89.0%, 94.6% and 97.7%, respectively. Further, the inhibition at 1 µM in data set [1] (setting [2]) came out at 73.2%.

As to `CN1CCN(c2sc(N3CCOCC3)nc2-c2ccc(OCCCCCOc3ccc(C(=N)NO)cc3)cc2)CC1` [Example 4, N-hydroxy-4-(5-{4-[5-(4-methyl-piperazin-1-yl)-2-morpholin-4-yl-thiazol-4-yl]-phenoxy}-pentyloxy)-benzamidine], the figures for the Cell survival rate with HOS, with MC3T3-E1 and in the data set with calvaria were 104%, 89% and 93%, respectively. The inhibition at 1 µM in data set [1] was 100%.

For `N=C(NO)c1ccc(OCCCCCOc2ccc(-c3nc(N4CCOCC4)sc3N3CCOCC3)cc2)cc1` [Example 5, N-hydroxy-4-{5-[4-(2,5-di-morpholin-4-yl-thiazol-4-yl)-phenoxy]-pentyloxy}-benzamidine], the Cell survival rate was determined as 100% in the data set on HOS, 93% in the data set on MC3T3-E1 and 98% in the data set with calvaria. Moreover, the inhibition at 1 µM in data set [1] (setting [2]) was determined as 98%.

With `N=C(NO)c1ccc(OCCCCCOc2ccc(-c3nc(N4CCOCC4)sc3N3CCSCC3)cc2)cc1` [Example 6, N-hydroxy-4-{5-[4-(2-morpholin-4-yl-5-thiomorpholin-4-yl-thiazol-4-yl)-phenoxy]-pentyloxy}-benzamidine], the Cell survival rate in the data set on HOS is 92%; with MC3T3-E1, 90%; in the data set with calvaria, 106%. The inhibition at 1 µM in data set [1] was 92%.

With `N=C(NO)c1ccc(OCCCCCOc2ccc(-c3nc(N4CCOCC4)sc3N3CCCC3)cc2)cc1` [Example 7, N-hydroxy-4-{5-[4-(2-morpholin-4-yl-5-pyrrolidin-1-yl-thiazol-4-yl)-phenoxy]-pentyloxy}-benzamidine], the figures for the Cell survival rate in the data set on HOS, in the data set with MC3T3-E1 and with calvaria were 92%, 99% and 101%, respectively. Further, the inhibition at 1 µM in data set [1] was 58%.

For the molecule `Cc1nc(-c2ccc(OCCCCCOc3ccc(C(=N)NO)cc3)cc2)c(CN2CCOCC2)s1` [Example 8, N-hydroxy-4-{5-[4-(2-methyl-5-morpholin-4-ylmethyl-thiazol-4-yl)-phenoxy]-pentyloxy}-benzamidine], the values for the Cell survival rate in the data set on HOS, in the data set with MC3T3-E1 and with calvaria were 102.3%, 94.7% and 90.7%, respectively. In addition, the inhibition at 1 µM in data set [1] (setting [2]) came to 96.4%.

For the molecule `Cc1nc(-c2ccc(OCCCCCOc3ccc(C(=N)NO)cc3)cc2)c(CN2CCN(C)CC2)s1` [Example 9, N-hydroxy-4-(5-{4-[2-methyl-5-(4-methyl-piperazin-1-ylmethyl)-thiazol-4-yl]-phenoxy}-pentyloxy)-benzamidine], the Cell survival rate in the data set on HOS turned out to be 95%; in the data set on MC3T3-E1, 98.8%; in the data set on calvaria, 92.3%. The inhibition at 1 µM in data set [1] was 96.4%.

Consider `Cc1nc(-c2ccc(OCCCCCOc3ccc(C(=N)NO)cc3)cc2)c(CN2CCSCC2)s1` [Example 10, N-hydroxy-4-{5-[4-(2-methyl-5-thiomorpholin-4-ylmethyl-thiazol-4-yl)-phenoxy]-pentyloxy}-benzamidine], for which the Cell survival rate in the data set on HOS was determined as 101%; in the data set on MC3T3-E1, 93.4%; in the data set with calvaria, 94.5%. In addition, in data set [1], the inhibition at 1 µM amounted to 92.9%.

Consider `Cc1nc(-c2ccc(OCCCCCOc3ccc(C(=N)NO)cc3)cc2)c(CN2CCCCC2)s1` [Example 11, N-hydroxy-4-{5-[4-(2-methyl-5-piperidin-1-ylmethyl-thiazol-4-yl)-phenoxy]-pentyloxy}-benzamidine], for which the figures for the Cell survival rate in the data set on HOS, in the data set on MC3T3-E1 and in the data set with calvaria were 101.9%, 91.9% and 95.8%, respectively. Besides, the inhibition at 1 µM in data set [1] (setting [2]) is 92.3%.

Consider `Cc1nc(-c2ccc(OCCCCCOc3ccc(C(=N)NO)cc3)cc2)c(CN(C)C)s1` [Example 12, N-hydroxy-4-{5-[4-(5-dimethylaminomethyl-2-methyl-thiazol-4-yl)-phenoxy]-pentyloxy}-benzamidine], for which the Cell survival rate was determined as 107.5% in the data set with HOS, 98.8% in the data set on MC3T3-E1 and 95.6% in the data set on calvaria. Moreover, the inhibition at 1 µM in data set [1] was found to be 64.9%.

On to `CCCCNCc1sc(C)nc1-c1ccc(OCCCCCOc2ccc(C(=N)NO)cc2)cc1` [Example 13, N-hydroxy-4-{5-[4-(5-butylaminomethyl-2-methyl-thiazol-4-yl)-phenoxy]-pentyloxy}-benzamidine], for which the figures for the Cell survival rate in the data set on HOS, in the data set on MC3T3-E1 and in the data set on calvaria were 106%, 93% and 96%, respectively. Also, the inhibition at 1 µM in data set [1] (setting [2]) was 100%.

For the molecule `Cc1nc(-c2ccc(OCCCCCOc3ccc(C(=N)NO)cc3)cc2)c(CNCC(C)C)s1` [Example 14, N-hydroxy-4-(5-{4-[5-(isobutylamino-methyl)-2-methyl-thiazol-4-yl]-phenoxy}-pentyloxy)-benzamidine], the Cell survival rate in the data set on HOS is recorded as 111%; with MC3T3-E1, 98%; in the data set with calvaria, 103%. Moreover, the inhibition at 1 µM in data set [1] was 100%.

As for `Cc1nc(-c2ccc(OCCCCCOc3ccc(C(=N)NO)cc3)cc2)c(CNC(C)(C)C)s1` [Example 15, N-hydroxy-4-(5-{4-[5-(tert-butylamino-methyl)-2-methyl-thiazol-4-yl]-phenoxy}-pentyloxy)-benzamidine], the figures for the Cell survival rate in the data set with HOS, in the data set on MC3T3-E1 and in the data set with calvaria were 98%, 99% and 105%, respectively. The inhibition at 1 µM in data set [1] was determined as 100%.

On to `Cc1nc(-c2ccc(OCCCCCOc3ccc(C(=N)NO)cc3)cc2)c(-n2cncn2)s1` [Example 44, N-hydroxy-4-{5-[4-(2-methyl-5-[1,2,4]triazol-1-yl-thiazol-4-yl)-phenoxy]-pentyloxy}-benzamidine], for which, in data set [1] (setting [2]), the inhibition at 1 µM was found to be 68%.
